From patent US4401660A, “Ester derivatives of 5-O-mycaminosyl tylonolide and method of using same” (Eli Lilly and Company, priority 1981, dated 1983)

Experiments:
Format in all cases: cell-based
Design in all cases: unit not given here
[1] = test system: Streptococcus Group D 9960; assay: MIC, standard agar-dilution assay (Table II)
Experimental: (§1) The MIC's in Table II were determined by standard agar-dilution assays. The MIC's in Table III were obtained using a conventional broth-dilution microtiter test.

[2] = test system: Haemophilus influenzae Holt; assay: MIC, standard agar-dilution assay (Table II); settings: ampicillin-sensitive strain
Experimental: as §1

[3] = test system: Streptococcus pneumoniae Park I; assay: MIC, standard agar-dilution assay (Table II)
Experimental: as §1

[4] = test system: Haemophilus influenzae R252; assay: MIC, standard agar-dilution assay (Table II); settings: Haemophilus influenzae R252, ampicillin-resistant strain
Experimental: as §1

[5] = test system: Streptococcus Group D X66; assay: MIC, standard agar-dilution assay (Table II)
Experimental: as §1

[6] = test system: Staphylococcus aureus S13E; assay: MIC, standard agar-dilution assay (Table II)
Experimental: as §1

[7] = test system: Staphylococcus epidermidis EPI1; assay: MIC, standard agar-dilution assay (Table II)
Experimental: as §1

[8] = test system: Staphylococcus aureus X400; assay: MIC, standard agar-dilution assay (Table II); settings: Staphylococcus aureus X400, methicillin-resistant strain
Experimental: as §1

[9] = test system: Staphylococcus epidermidis EPI2; assay: MIC, standard agar-dilution assay (Table II)
Experimental: as §1

[10] = test system: Staphylococcus aureus X1.1; assay: MIC, standard agar-dilution assay (Table II)
Experimental: as §1

[11] = test system: Staphylococcus aureus V41; assay: MIC, standard agar-dilution assay (Table II); settings: Staphylococcus aureus V41, penicillin-resistant strain
Experimental: as §1

[12] = test system: Streptococcus pyogenes C203; assay: MIC, standard agar-dilution assay (Table II)
Experimental: as §1

[13] = test system: Pasteurella multocida 40G; assay: MIC, broth-dilution microtiter test (Table III)
Experimental: as §1

Staphylococcus aureus = assay: MIC, broth-dilution microtiter test (Table III)
Experimental: as §1

[14] = test system: Pasteurella multocida 68C; assay: MIC, broth-dilution microtiter test (Table III)
Experimental: as §1

Mycoplasma gallisepticum = assay: MIC, broth-dilution microtiter test (Table III)
Experimental: as §1

[15] = test system: Pasteurella multocida 17E; assay: MIC, broth-dilution microtiter test (Table III); settings: bovine isolate
Experimental: as §1

[16] = test system: Pasteurella haemolytica 41D; assay: MIC, broth-dilution microtiter test (Table III)
Experimental: as §1

[17] = test system: Pasteurella multocida 22A; assay: MIC, broth-dilution microtiter test (Table III)
Experimental: as §1

Streptococcus sp. 80 = assay: MIC, broth-dilution microtiter test (Table III)
Experimental: as §1

[18] = test system: Pasteurella haemolytica 22C; assay: MIC, broth-dilution microtiter test (Table III)
Experimental: as §1

Mycoplasma synoviae = assay: MIC, broth-dilution microtiter test (Table III)
Experimental: as §1

[19] = test system: Pasteurella multocida 60A; assay: MIC, broth-dilution microtiter test (Table III); settings: avian isolate
Experimental: as §1

[20] = test system: Pasteurella haemolytica 23C; assay: MIC, broth-dilution microtiter test (Table III)
Experimental: as §1

Mycoplasma hyorhinis = assay: MIC, broth-dilution microtiter test (Table III)
Experimental: as §1

Row | Structure (SMILES) | minimal inhibitory concentration (MIC) [1] | minimal inhibitory concentration (MIC) [2] | minimal inhibitory concentration (MIC) [3] | minimal inhibitory concentration (MIC) [4] | minimal inhibitory concentration (MIC) [5] | minimal inhibitory concentration (MIC) [6] | minimal inhibitory concentration (MIC) [7] | minimal inhibitory concentration (MIC) [8] | minimal inhibitory concentration (MIC) [9] | minimal inhibitory concentration (MIC) [10] | minimal inhibitory concentration (MIC) [11] | minimal inhibitory concentration (MIC) [12] | minimal inhibitory concentration (MIC) [13] | minimal inhibitory concentration (MIC) (Staphylococcus aureus) | minimal inhibitory concentration (MIC) [14] | minimal inhibitory concentration (MIC) (Mycoplasma gallisepticum) | minimal inhibitory concentration (MIC) [15] | minimal inhibitory concentration (MIC) [16] | minimal inhibitory concentration (MIC) [17] | minimal inhibitory concentration (MIC) (Streptococcus sp. 80) | other results
1 | CCC(=O)OC1C(OC2C(CC=O)CC(C)C(=O)C=CC(C)=CC(CO)C(CC)OC(=O)CC(O)C2C)OC(C)C(O)C1N(C)C (centres unmarked) [Compound 2, 2'-O-Propionyl-OMT] | 2 | 4 | 8 | 4 | 2 | 2 | 1 | 4 | 1 | 2 | 4 | 0.5 | 6.25 | 3.12 | 3.12 | 0.39 | 3.12 | 12.5 | 3.12 | < 0.78 | minimal inhibitory concentration (MIC) [18]: 12.5; minimal inhibitory concentration (MIC) (Mycoplasma synoviae): 0.78; minimal inhibitory concentration (MIC) [19]: 1.56; minimal inhibitory concentration (MIC) [20]: 12.5; minimal inhibitory concentration (MIC) (Mycoplasma hyorhinis): 3.12
2 | CCC1OC(=O)CC(O)C(C)C(OC2OC(C)C(O)C(N(C)C)C2O)C(CC=O)CC(C)C(=O)C=CC(C)=CC1COC(=O)CCCCc1ccccc1 (centres unmarked) [Compound 61] | 0.25 | 2 | 0.06 | 2 | 0.25 | 0.25 | 0.25 | 0.25 | 0.25 | 0.25 | 0.25 | 0.25 | 6.25 | 1.56 | 6.25 | 0.78 | 6.25 | 6.25 | 6.25 | 1.56 | minimal inhibitory concentration (MIC) [18]: 12.5; minimal inhibitory concentration (MIC) (Mycoplasma synoviae): 1.56; minimal inhibitory concentration (MIC) [19]: 3.12; minimal inhibitory concentration (MIC) [20]: 12.5; minimal inhibitory concentration (MIC) (Mycoplasma hyorhinis): 6.25
3 | CCC1OC(=O)CC(O)C(C)C(OC2OC(C)C(O)C(N(C)C)C2OC(C)=O)C(CC=O)CC(C)C(=O)C=CC(C)=CC1COC(=O)CCCCc1ccccc1 (centres unmarked) [Compound 60] | 0.25 | 2 | 0.125 | 2 | 0.25 | 0.25 | 0.25 | 0.25 | 0.5 | 0.25 | 0.25 | 0.25 | 12.5 | 0.39 | 1.56 | < 0.05 | 3.12 | 6.25 | 3.12 | 0.39 | minimal inhibitory concentration (MIC) [18]: 6.25; minimal inhibitory concentration (MIC) (Mycoplasma synoviae): 0.78; minimal inhibitory concentration (MIC) [19]: 3.12; minimal inhibitory concentration (MIC) [20]: 6.25; minimal inhibitory concentration (MIC) (Mycoplasma hyorhinis): 6.25
4 | CCC1OC(=O)CC(O)C(C)C(OC2OC(C)C(O)C(N(C)C)C2OC(=O)Cc2ccccc2)C(CC=O)CC(C)C(=O)C=CC(C)=CC1COC(=O)Cc1ccccc1 (centres unmarked) [Compound 53, 2',23-Di-O-Phenylacetyl-OMT] | 0.25 | 1 | 0.03 | 1 | 0.25 | 0.25 | 0.25 | 0.25 | 0.25 | 0.25 | 0.25 | 0.06 | 1.56 | 0.195 | 0.78 | < 0.05 | 1.56 | 3.12 | 1.56 | < 0.05 | minimal inhibitory concentration (MIC) [18]: 3.12; minimal inhibitory concentration (MIC) (Mycoplasma synoviae): < 0.05; minimal inhibitory concentration (MIC) [19]: 1.56; minimal inhibitory concentration (MIC) [20]: 3.12; minimal inhibitory concentration (MIC) (Mycoplasma hyorhinis): 3.12
5 | CCC1OC(=O)CC(O)C(C)C(OC2OC(C)C(O)C(N(C)C)C2OC(C)=O)C(CC=O)CC(C)C(=O)C=CC(C)=CC1COC(=O)c1ccc2ccccc2c1 (centres unmarked) [Compound 58] | 0.5 | 2 | 0.03 | 1 | 0.25 | 0.25 | 0.25 | 0.5 | 0.5 | 0.25 | 0.5 | 0.125 | 3.12 | 1.56 | 1.56 | < 0.05 | 3.12 | 6.25 | 6.25 | 0.78 | minimal inhibitory concentration (MIC) [18]: 12.5; minimal inhibitory concentration (MIC) (Mycoplasma synoviae): 0.78; minimal inhibitory concentration (MIC) [19]: 3.12; minimal inhibitory concentration (MIC) [20]: 6.25; minimal inhibitory concentration (MIC) (Mycoplasma hyorhinis): 6.25
